Assay results: ChEMBL document CHEMBL1201862, “PubChem BioAssay data set” (2004)
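Step 1: Grow cells in 96-well plates. Step 2: Expose to compound for 48 hours at 5 concentrations. Step 3: Interpolate endpoints linearly; if unreached, use highest concentration. GI50 = concentration required for 50% inhibition of growth.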 Calls of active or inactive are those of the source. Cut-off read from the data, not from the text of the source: active = GI50 up to about 1.1 µM and inactive = higher.

Assays:
Test in all cases: inhibition of tumour cell growth, NCI panel, 48 h
RXF 393 = test system: RXF 393
HCT-15 = test system: HCT-15
CAKI-1 = test system: CAKI-1
MDA-MB-435 = test system: MDA-MB-435
HCT-116 = test system: HCT-116
OVCAR-5 = test system: OVCAR-5
SK-OV-3 = test system: SK-OV-3
HT-29 = test system: HT-29
COLO 205 = test system: COLO 205
K562 = test system: K562
LOX IMVI = test system: LOX IMVI
MCF7 = test system: MCF7
IGROV-1 = test system: IGROV-1
CCRF-CEM = test system: CCRF-CEM
OVCAR-4 = test system: OVCAR-4
HOP-62 = test system: HOP-62
MDA-N = test system: MDA-N
Malme-3M = test system: Malme-3M
SNB-75 = test system: SNB-75
KM-20L2 = test system: KM-20L2

SMILES	GI50 (RXF 393)	GI50 (HCT-15) [µM]	GI50 (CAKI-1)	GI50 (MDA-MB-435)	GI50 (HCT-116)	GI50 (OVCAR-5)	GI50 (SK-OV-3)	GI50 (HT-29)	GI50 (COLO 205)	GI50 (K562)	GI50 (LOX IMVI)	GI50 (MCF7)	GI50 (IGROV-1)	GI50 (CCRF-CEM)	GI50 (OVCAR-4)	GI50 (HOP-62)	GI50 (MDA-N)	GI50 (Malme-3M)	GI50 (SNB-75)	GI50 (KM-20L2)
CN(C)Cc1cc(O)c(O)c(CN(C)C)c1	50.4 µM (inactive)	24.2	34.4 µM (inactive)	> 100 µM (inactive)	41.3 µM (inactive)	32.4 µM (inactive)	54.1 µM (inactive)	40.2 µM (inactive)	34.7 µM (inactive)	33 µM (inactive)	36 µM (inactive)	39.6 µM (inactive)	46.3 µM (inactive)	20.2 µM (inactive)	42.5 µM (inactive)	37.2 µM (inactive)	57.8 µM (inactive)	31.3 µM (inactive)	56.6 µM (inactive)	
S=C(Nc1ccccc1)N1N=C2c3ccccc3CC[C@H]2[C@@H]1c1ccccc1	2.12 µM (inactive)	2.02			> 100 µM (inactive)	> 100 µM (inactive)	2.22 µM (inactive)	2.81 µM (inactive)		0.607 µM (active)	7.35 µM (inactive)		4.54 µM (inactive)	2.91 µM (inactive)	47.1 µM (inactive)	4.22 µM (inactive)		> 100 µM (inactive)		3.21 µM (inactive)
CCCCOC(=O)CNC(=O)OCCCCC#CC#CCCCCOC(=O)NCC(=O)OCCCC			> 100 µM (inactive)		> 100 µM (inactive)	> 100 µM (inactive)	> 100 µM (inactive)	> 100 µM (inactive)	> 100 µM (inactive)	> 100 µM (inactive)	> 100 µM (inactive)		> 100 µM (inactive)	> 100 µM (inactive)	> 100 µM (inactive)	> 100 µM (inactive)		> 100 µM (inactive)	> 100 µM (inactive)	> 100 µM (inactive)
N#C/C(=C\c1ccccc1)C(NO)Nc1ccccc1 (centres undefined)	41.5 µM (inactive)	79.8	86.5 µM (inactive)		40.7 µM (inactive)	> 100 µM (inactive)	> 100 µM (inactive)	72.9 µM (inactive)	45.3 µM (inactive)	44.7 µM (inactive)			57.3 µM (inactive)	31.7 µM (inactive)	84.3 µM (inactive)	> 100 µM (inactive)		> 100 µM (inactive)	50.6 µM (inactive)	> 100 µM (inactive)
Nc1nc(Cl)cc(NCCCCCCNc2cc(Cl)nc(N)n2)n1	> 100 µM (inactive)	78.9	27.7 µM (inactive)		30.7 µM (inactive)	16 µM (inactive)	> 100 µM (inactive)	> 100 µM (inactive)	> 100 µM (inactive)	28.6 µM (inactive)	20.8 µM (inactive)		> 100 µM (inactive)	59.6 µM (inactive)	88.9 µM (inactive)	> 100 µM (inactive)			> 100 µM (inactive)	> 100 µM (inactive)
C=C1CN(Cc2ccccc2)[C@@H]2CCCCC[C@H](C#N)[C@H]12	> 60.8 µM (inactive)	> 100	> 100 µM (inactive)	> 76 µM (inactive)	> 72.4 µM (inactive)	> 100 µM (inactive)	> 86.9 µM (inactive)	> 67.5 µM (inactive)	> 100 µM (inactive)	47.2 µM (inactive)	95.9 µM (inactive)	> 100 µM (inactive)	> 100 µM (inactive)	24.9 µM (inactive)	> 100 µM (inactive)	> 69.2 µM (inactive)	> 100 µM (inactive)	> 100 µM (inactive)	> 100 µM (inactive)	
O=C(Nc1ccc(Cl)c(Cl)c1)C(=O)C(C(=O)c1ccccc1-c1ccccc1)C1OC(=O)c2ccccc21 (centres undefined)	8.15 µM (inactive)				10.5 µM (inactive)	18.5 µM (inactive)	28.5 µM (inactive)	29.8 µM (inactive)	15.6 µM (inactive)	21.5 µM (inactive)	13.5 µM (inactive)		24.2 µM (inactive)	12.1 µM (inactive)		13.1 µM (inactive)		8.55 µM (inactive)	13 µM (inactive)	22.9 µM (inactive)
C/C(CC(=O)Nc1cccc(Cl)c1C)=N\NC(N)=S	> 100 µM (inactive)				> 100 µM (inactive)	> 100 µM (inactive)	> 100 µM (inactive)	> 100 µM (inactive)	> 100 µM (inactive)	> 100 µM (inactive)	> 100 µM (inactive)		> 100 µM (inactive)	> 100 µM (inactive)		> 100 µM (inactive)		> 100 µM (inactive)	> 100 µM (inactive)	> 100 µM (inactive)
CC1=C2NCN(C)N=C2C(C#N)(C#N)C1(C#N)C#N	19.1 µM (inactive)	21	5.97 µM (inactive)	21.7 µM (inactive)	23.1 µM (inactive)	33.5 µM (inactive)	> 100 µM (inactive)	21.4 µM (inactive)	5 µM (inactive)	3.78 µM (inactive)	20.8 µM (inactive)	19.8 µM (inactive)	24.8 µM (inactive)	2.22 µM (inactive)	20 µM (inactive)	> 55.2 µM (inactive)	15.6 µM (inactive)	20.4 µM (inactive)	> 51.1 µM (inactive)	
Cc1cc2c(c3c1c1ccccc1n3C)C(=O)c1ccccc1C2=O	> 100 µM (inactive)	> 100			> 100 µM (inactive)	> 100 µM (inactive)		> 100 µM (inactive)	> 100 µM (inactive)	48 µM (inactive)	> 100 µM (inactive)		45.7 µM (inactive)	> 100 µM (inactive)	> 100 µM (inactive)	> 100 µM (inactive)		> 100 µM (inactive)	> 100 µM (inactive)	> 100 µM (inactive)
CC1=NN(C(=O)c2ccc(Cl)cc2)C(=O)/C1=C/c1ccco1	> 100 µM (inactive)	> 100	> 100 µM (inactive)		> 100 µM (inactive)	> 100 µM (inactive)	> 100 µM (inactive)	> 100 µM (inactive)	> 100 µM (inactive)	> 100 µM (inactive)	> 100 µM (inactive)		> 100 µM (inactive)	> 100 µM (inactive)	> 100 µM (inactive)	> 100 µM (inactive)		> 100 µM (inactive)		> 100 µM (inactive)
CC(C)(C)N/N=N/c1cn(C2OC(CO)C(O)C2O)c(=O)[nH]c1=O (centres undefined)	61.4 µM (inactive)	43.5	> 100 µM (inactive)		40.7 µM (inactive)	> 100 µM (inactive)	> 100 µM (inactive)	> 100 µM (inactive)	37.2 µM (inactive)	40.7 µM (inactive)	41.7 µM (inactive)		> 100 µM (inactive)	26.2 µM (inactive)		> 100 µM (inactive)		> 100 µM (inactive)	> 100 µM (inactive)	> 100 µM (inactive)
COC(=O)C(CCC1(C)OCCO1)C(C)=O (centres undefined)	> 100 µM (inactive)	> 100			> 100 µM (inactive)	> 100 µM (inactive)	> 100 µM (inactive)	> 100 µM (inactive)	> 100 µM (inactive)	> 100 µM (inactive)	> 100 µM (inactive)		> 100 µM (inactive)	> 100 µM (inactive)	> 100 µM (inactive)	> 100 µM (inactive)		> 100 µM (inactive)	> 100 µM (inactive)	> 100 µM (inactive)
CCCCCCCCCCCCCS(=O)(=O)O	> 100 µM (inactive)	> 100			> 100 µM (inactive)	> 100 µM (inactive)		> 100 µM (inactive)	> 100 µM (inactive)		> 100 µM (inactive)		> 100 µM (inactive)	> 100 µM (inactive)	> 100 µM (inactive)	> 100 µM (inactive)		> 100 µM (inactive)	> 100 µM (inactive)	> 100 µM (inactive)
CN1CCS(=O)(=O)NC(Cc2ccccc2)C(=O)N2CCCC2C1=O (centres undefined)		> 100	> 100 µM (inactive)		> 100 µM (inactive)	> 100 µM (inactive)	> 100 µM (inactive)	> 100 µM (inactive)	> 100 µM (inactive)	> 100 µM (inactive)	> 100 µM (inactive)		> 100 µM (inactive)	> 100 µM (inactive)	> 100 µM (inactive)	> 100 µM (inactive)		> 100 µM (inactive)	> 100 µM (inactive)	> 100 µM (inactive)
COc1cc(CCc2ccc(OC(C)=O)cc2)cc(OC)c1OC	> 100 µM (inactive)	> 100	> 100 µM (inactive)		> 100 µM (inactive)	72.4 µM (inactive)		> 100 µM (inactive)	> 100 µM (inactive)	63.8 µM (inactive)	92 µM (inactive)		> 100 µM (inactive)	> 100 µM (inactive)	> 100 µM (inactive)	> 100 µM (inactive)		> 100 µM (inactive)	80.5 µM (inactive)	> 100 µM (inactive)
C=C[C@H]1CN2CCc3c([nH]c4c([C@H]5CCCN5C)c(O)ccc34)[C@@H]2C[C@@H]1C[C@H]1c2[nH]c3ccccc3c2CCN1C [STRYCHNOPENTAMINE]	1.04 µM (active)	0.899	1.72 µM (inactive)	1.43 µM (inactive)	1.33 µM (inactive)	1.72 µM (inactive)	1.77 µM (inactive)	1.3 µM (inactive)	1.5 µM (inactive)	0.422 µM (active)	1.15 µM (inactive)	0.776 µM (active)	1.59 µM (inactive)	0.719 µM (active)	1.74 µM (inactive)	1.55 µM (inactive)	1.35 µM (inactive)	1.76 µM (inactive)	1.14 µM (inactive)	
